Counter-ions that a name gives are not always drawn. Like-named read-outs stand apart in the source and are kept apart here.

The conditions of series [1]: unitless; cited from earlier work.
The nature of series [2]: Screening: visual/manual check whether a coalesced film formed. It counts as physicochemical.
For series [3] the following is noted: 25° C.; cited from earlier work.
Setting [4] is: ethylcellulose dispersion plus additive, intact on and after removal from substrate.

For the compound `CCOC(=O)CC(O)(CC(=O)OCC)C(=O)OCC` [triethyl citrate], the “logP logarithm of the water-octanol partition coefficient” value (shortened to “logP logarithm”) in series [1] was 1.267. The “Film? Did the sample form a coalesced film? (yes or no)” value in series [2] (setting [4]) is reported as “yes”.

For `CC(=O)OCC(COC(C)=O)OC(C)=O` [triacetin], the “W. Sol. solubility in water” value in series [3] was 1.16 mg/mL. The “logP logarithm” value in series [1] is recorded as 0.216. Further, the “Film? Did the sample form a coalesced film? (yes or no)” value in series [2] (setting [4]) is reported as “yes”.

Take `CC(C)(C)CC(C)(C)c1ccc(OCCOCC[N+](C)(C)Cc2ccccc2)cc1` [benzethonium chloride]: in series [2], the “Film? Did the sample form a coalesced film? (yes or no)” value is listed as “no”.

Take `OC[C@@H](O)[C@@H](O)[C@H](O)[C@H](O)CO` [mannitol]: the “W. Sol. solubility in water” value in series [3] is 182 mg/mL. In series [1], the “logP logarithm” value is −3.62. The “Film? Did the sample form a coalesced film? (yes or no)” value in series [2] (setting [4]) is recorded as “no”.

Regarding `OC[C@@H](O)[C@@H](O[C@H]1O[C@H](CO)[C@@H](O)[C@H](O)[C@H]1O)[C@H](O)[C@@H](O)CO` [maltitol], in series [2] (setting [4]), the “Film? Did the sample form a coalesced film? (yes or no)” value is listed as “no”.

Turning to `OCC(O)CO` [glycerol], the “W. Sol. solubility in water” value in series [3] was 500 mg/mL. For the same compound, in series [1], the “logP logarithm” value was −1.85. Moreover, the “Film? Did the sample form a coalesced film? (yes or no)” value in series [2] (setting [4]) is recorded as “no”.

In the case of `OC[C@@H](O)[C@@H](O)[C@H](O)[C@@H](O)CO` [sorbitol], the “W. Sol. solubility in water” value in series [3] was 182 mg/mL. The “logP logarithm” value in series [1] is recorded as −3.262. The “Film? Did the sample form a coalesced film? (yes or no)” value in series [2] (setting [4]) is listed as “no”.

In the case of `OCCc1ccccc1` [phenylethyl alcohol], in series [3], the “W. Sol. solubility in water” value is 20 mg/mL. Besides, the “Film? Did the sample form a coalesced film? (yes or no)” value in series [2] (setting [4]) is “yes”.

As to `CCCCCCCC/C=C\CCCCCCCCO` [oleyl alcohol], the “logP logarithm” value in series [1] is 7.562. Also, in series [2] (setting [4]), the “Film? Did the sample form a coalesced film? (yes or no)” value is “yes”.

Take `O=C(O)CCC(=O)O` [succinic acid]: in series [1], the “logP logarithm” value is recorded as −0.933. Further, in series [2] (setting [4]), the “Film? Did the sample form a coalesced film? (yes or no)” value is given as “no”.

As to `CCCCC/C=C\C/C=C\CCCCCCCC(=O)O` [linoleic acid], the “Film? Did the sample form a coalesced film? (yes or no)” value in series [2] (setting [4]) was “yes”.

Take `CC[N+](CC)(CC(=O)Nc1c(C)cccc1C)Cc1ccccc1` [denatonium benzoate]: the “logP logarithm” value in series [1] was −0.088. Further, in series [2] (setting [4]), the “Film? Did the sample form a coalesced film? (yes or no)” value was “no”.

As to `CCCCCCCC/C=C\CCCCCCCC(=O)O` [oleic acid], the “Film? Did the sample form a coalesced film? (yes or no)” value in series [2] (setting [4]) is on record as “yes”.

On to `O=C(OCc1ccccc1)c1ccccc1` [benzyl benzoate], for which the “logP logarithm” value in series [1] is 3.81. The “Film? Did the sample form a coalesced film? (yes or no)” value in series [2] (setting [4]) is given as “yes”.

Regarding `OCc1ccccc1` [benzyl alcohol], the “W. Sol. solubility in water” value in series [3] was 42.9 mg/mL. Besides, in series [2] (setting [4]), the “Film? Did the sample form a coalesced film? (yes or no)” value is given as “yes”.

`COC(=O)c1ccccc1C(=O)OC` [dimethyl phthalate]: the “Film? Did the sample form a coalesced film? (yes or no)” value in series [2] is listed as “yes”.

Take `CCCCOC(=O)CC(O)(CC(=O)OCCCC)C(=O)OCCCC` [tributyl citrate]: in series [1], the “logP logarithm” value is reported as 4.324. In addition, in series [2] (setting [4]), the “Film? Did the sample form a coalesced film? (yes or no)” value is “yes”.

Consider `OC[C@@H](O)[C@H](O)[C@@H](O)CO` [xylitol], for which the “W. Sol. solubility in water” value in series [3] was 1500 mg/mL. The “logP logarithm” value in series [1] is given as −2.65. In addition, the “Film? Did the sample form a coalesced film? (yes or no)” value in series [2] (setting [4]) is recorded as “no”.

Consider `CC(O)CO` (stereo not drawn) [propylene glycol], for which the “logP logarithm” value in series [1] is given as −1.008. Besides, the “Film? Did the sample form a coalesced film? (yes or no)” value in series [2] (setting [4]) is reported as “yes”.

Take `OCCNCCO` [diethanolamine]: the “logP logarithm” value in series [1] is −1.761. Further, the “Film? Did the sample form a coalesced film? (yes or no)” value in series [2] (setting [4]) was “no”.

For the compound `CCCOC(=O)c1cc(O)c(O)c(O)c1` [propyl gallate], the “logP logarithm” value in series [1] is 1.779. Also, the “Film? Did the sample form a coalesced film? (yes or no)” value in series [2] (setting [4]) is “yes”.

For `CCCCOC(=O)CCCCCCCCC(=O)OCCCC` [dibutyl sebacate], the “logP logarithm” value in series [1] is recorded as 5.958. In addition, in series [2] (setting [4]), the “Film? Did the sample form a coalesced film? (yes or no)” value was “yes”.

As to `CCCCCCCCCCCCCCCCCC(=O)O` [stearic acid], in series [2] (setting [4]), the “Film? Did the sample form a coalesced film? (yes or no)” value is given as “yes”.

On to `OCCOc1ccccc1` [2-phenoxy ethanol, 2-Phenoxyethanol], for which the “W. Sol. solubility in water” value in series [3] was 30 mg/mL. The “Film? Did the sample form a coalesced film? (yes or no)” value in series [2] is “yes”.

`CCOC(=O)c1ccccc1C(=O)OCC` [diethyl phthalate]: in series [2] (setting [4]), the “Film? Did the sample form a coalesced film? (yes or no)” value was “yes”.
